Results taken from ChEMBL document CHEMBL1201862, “PubChem BioAssay data set” (2004).
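Interpolation was linear, between the two tested concentrations surrounding the appropriate level; five concentrations were tested over 48 hours in 96-well plates. GI50 is the concentration that inhibits growth by half.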 Calls of active or inactive are those of the source. No stated cut-off is given here; in the data, active = GI50 up to about 1.1 µM and inactive = higher.

Columns and labels:
Assay in all cases: NCI tumour cell line growth inhibition, 48 h
Hs-578T = system: Hs-578T
OVCAR-4 = system: OVCAR-4
RPMI-8226 = system: RPMI-8226
K562 = system: K562
HCT-116 = system: HCT-116
SF-539 = system: SF-539
NCI-H23 = system: NCI-H23
HT-29 = system: HT-29
Malme-3M = system: Malme-3M
SNB-75 = system: SNB-75
SK-MEL-28 = system: SK-MEL-28
SK-OV-3 = system: SK-OV-3
OVCAR-8 = system: OVCAR-8
HCT-15 = system: HCT-15
SF-268 = system: SF-268
NCI-H460 = system: NCI-H460
SN12C = system: SN12C
U-251 = system: U-251
MDA-MB-435 = system: MDA-MB-435
LOX IMVI = system: LOX IMVI
BT-549 = system: BT-549
T47D = system: T47D
IGROV-1 = system: IGROV-1
HCC 2998 = system: HCC 2998
SNB-19 = system: SNB-19
EKVX = system: EKVX
HOP-92 = system: HOP-92
A498 = system: A498
TK-10 = system: TK-10
MDA-N = system: MDA-N
SW-620 = system: SW-620
PC-3 = system: PC-3
RXF 393 = system: RXF 393
SK-MEL-5 = system: SK-MEL-5
UACC-257 = system: UACC-257
NCI/ADR-RES = system: NCI/ADR-RES
ACHN = system: ACHN
786-0 = system: 786-0
COLO 205 = system: COLO 205
CAKI-1 = system: CAKI-1
A549 = system: A549
MOLT-4 = system: MOLT-4
KM12 = system: KM12
NCI-H522 = system: NCI-H522
SR = system: SR
UACC-62 = system: UACC-62
OVCAR-3 = system: OVCAR-3
M14 = system: M14
OVCAR-5 = system: OVCAR-5
UO-31 = system: UO-31
SF-295 = system: SF-295
HOP-62 = system: HOP-62
HL-60 = system: HL-60
NCI-H226 = system: NCI-H226
CCRF-CEM = system: CCRF-CEM
MDA-MB-231 = system: MDA-MB-231
MCF7 = system: MCF7
DU-145 = system: DU-145
SK-MEL-2 = system: SK-MEL-2

Measured: GI50

Oc1cc(Cl)cc2cc(Cl)cnc12
active: K562 0.989 µM | LOX IMVI 0.597 µM | IGROV-1 0.596 µM | OVCAR-3 0.582 µM | HL-60 0.288 µM
inactive: Hs-578T 22.1 µM | OVCAR-4 1.55 µM | RPMI-8226 2.59 µM | HCT-116 2.67 µM | SF-539 3.24 µM | NCI-H23 2.75 µM | HT-29 22.8 µM | Malme-3M 2.25 µM | SNB-75 5.35 µM | SK-MEL-28 5.12 µM | SK-OV-3 30.8 µM | OVCAR-8 2.28 µM | SF-268 1.14 µM | NCI-H460 1.79 µM | SN12C 2.3 µM | U-251 2.42 µM | MDA-MB-435 2.87 µM | BT-549 4.73 µM | T47D 3.34 µM | HCC 2998 25.1 µM | SNB-19 4 µM | EKVX 2.85 µM | HOP-92 21.5 µM | A498 12.5 µM | TK-10 27.5 µM | MDA-N 6.34 µM | SW-620 3.15 µM | PC-3 2.94 µM | RXF 393 5.07 µM | SK-MEL-5 3.67 µM | UACC-257 3.73 µM | NCI/ADR-RES 1.49 µM | ACHN 2.44 µM | 786-0 23 µM | COLO 205 31 µM | CAKI-1 12.9 µM | A549 3.22 µM | MOLT-4 2.89 µM | KM12 5.13 µM | NCI-H522 3.16 µM | SR 1.56 µM | UACC-62 2.49 µM | M14 3.3 µM | OVCAR-5 17.5 µM | UO-31 3.21 µM | SF-295 1.92 µM | HOP-62 7.41 µM | NCI-H226 19.5 µM | CCRF-CEM 1.78 µM | MDA-MB-231 3.56 µM | MCF7 3.4 µM | DU-145 6.47 µM
0.598 µM: HCT-15

O=c1[nH]nc(Cc2ccccc2)n1/N=C/c1ccncc1
> 100 µM: HCT-15
inactive: Hs-578T 82.2 µM | OVCAR-4 > 100 µM | RPMI-8226 > 100 µM | K562 > 100 µM | HCT-116 > 100 µM | SF-539 > 100 µM | NCI-H23 > 100 µM | HT-29 > 100 µM | Malme-3M > 100 µM | SNB-75 > 100 µM | SK-MEL-28 > 100 µM | OVCAR-8 > 100 µM | SF-268 > 100 µM | NCI-H460 > 100 µM | SN12C > 100 µM | U-251 > 100 µM | MDA-MB-435 > 100 µM | LOX IMVI > 100 µM | BT-549 68.9 µM | T47D > 100 µM | IGROV-1 > 100 µM | HCC 2998 > 100 µM | SNB-19 > 100 µM | EKVX > 100 µM | HOP-92 > 100 µM | A498 39 µM | TK-10 > 100 µM | MDA-N > 100 µM | SW-620 > 100 µM | PC-3 > 100 µM | RXF 393 > 100 µM | SK-MEL-5 64.4 µM | UACC-257 > 100 µM | NCI/ADR-RES > 100 µM | ACHN > 100 µM | 786-0 > 100 µM | COLO 205 > 100 µM | CAKI-1 42.2 µM | A549 > 100 µM | MOLT-4 > 100 µM | KM12 > 100 µM | NCI-H522 > 100 µM | SR > 100 µM | OVCAR-3 > 100 µM | M14 > 100 µM | OVCAR-5 > 100 µM | UO-31 > 100 µM | SF-295 > 100 µM | HOP-62 48.2 µM | HL-60 > 100 µM | NCI-H226 > 100 µM | CCRF-CEM > 100 µM | MDA-MB-231 > 100 µM | MCF7 > 100 µM | DU-145 > 100 µM

COc1ccc(/C=C2\N=C(c3ccccc3)N(C3Nc4cc5c(cc4S3)NC(N3C(=O)/C(=C/c4ccc(OC)cc4)N=C3c3ccccc3)S5)C2=O)cc1 (stereo unspecified)
38.5 µM: HCT-15
inactive: Hs-578T 48.5 µM | OVCAR-4 38.3 µM | RPMI-8226 29.5 µM | K562 58.2 µM | HCT-116 42.3 µM | SF-539 11.6 µM | NCI-H23 42.9 µM | HT-29 46.2 µM | SNB-75 22.5 µM | SK-MEL-28 > 100 µM | OVCAR-8 27.1 µM | SF-268 29.6 µM | NCI-H460 12.7 µM | U-251 22.9 µM | MDA-MB-435 56.6 µM | LOX IMVI 37.3 µM | BT-549 23.3 µM | T47D 65.3 µM | IGROV-1 > 100 µM | SK-MEL-2 31.6 µM | HCC 2998 30.1 µM | EKVX 16.7 µM | HOP-92 > 100 µM | A498 40.4 µM | TK-10 > 100 µM | MDA-N 37.9 µM | SW-620 61.5 µM | PC-3 83.6 µM | RXF 393 > 100 µM | SK-MEL-5 37.2 µM | UACC-257 > 100 µM | NCI/ADR-RES 19.2 µM | ACHN 90.4 µM | 786-0 28.1 µM | CAKI-1 > 100 µM | A549 36.8 µM | MOLT-4 23.6 µM | KM12 54.6 µM | NCI-H522 18.1 µM | SR 9.68 µM | OVCAR-3 43.6 µM | M14 > 100 µM | OVCAR-5 > 100 µM | UO-31 > 100 µM | SF-295 > 100 µM | HOP-62 41.2 µM | HL-60 33.2 µM | NCI-H226 60.1 µM | MDA-MB-231 > 100 µM | MCF7 43.6 µM | DU-145 50.5 µM
